Consider 6 compounds from patent publication US9416111B2, “Substituted diazine and triazine spleen tyrosine kinease (Syk) inhibitors” (Merck Sharp & Dohme Corp., priority 2012, dated 2016).

One data set deals with PGD2. The note with it: dosed intranasally, phase I/II study, allergic rhinitis; cited from earlier work.
For data set [1] the following is noted: phase II clinical trial, allergic rhinitis; cited from earlier work.
Data set [2] concerns the target T1, recombinant human GST-SYK (Homo sapiens, UniProt P43405).
T1 construct: purchased Carna Biosciences 08-176
In words: Homogeneous Time-Resolved Fluorescence (HTRF) assay for the recombinant human Syk enzyme. It is filed as biochemical. The note with it: GST-hSYK 5 pM, ATP 25 μM, IC50 rated in classes, read-out: rhSYK Activity. The essentials: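 HTRF read-out, via Europium anti-phosphotyrosine antibody and SA-APC added with EDTA, measured phosphorylation of a 250 nM biotinylated substrate after 45 min at room temperature with 25 μM ATP and 5 mM magnesium. Enzyme was 5 pM GST-hSYK, preincubated 10 min with compound in Tris pH 7.5 buffer containing DTT.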

pIC50: −log10 of the molar value.

`Oc1cccc(Nc2ncc(F)c(Nc3cccc(O)c3)n2)c1` [Example R112]: in the data set with PGD2, the clinical safety result is reported as “safe across a range of indicators” and the “decrease in PGD2” value was “statistically significant decrease in PGD2”. Besides, in data set [1], the efficacy versus placebo result is “lack of efficacy versus placebo”.
Regarding `CCCOC1CCCN(c2ncc(-c3cc(C)cc(Nc4nccc(C(F)(F)F)n4)c3)cn2)C1` (centres unmarked) [Example 2.53, N-{3-methyl-5-[2-(3-propoxypiperidin-1-yl)pyrimidin-5-yl]phenyl}-4-(trifluoromethyl)pyrimidin-2-amine], the pIC50 in data set [2] was 6.00 to 7.00.
On to `Cc1cc(Nc2nccc(C(F)(F)F)n2)cc(-c2cnc(NCCCCO)nc2)c1` [Example 2.35, 4-{[5-(3-methyl-5-{[4-(trifluoromethyl)pyrimidin-2-yl]amino}phenyl)pyrimidin-2-yl]amino}butan-1-ol], for which the pIC50 in data set [2] is over 7.00.
Still for that read-out and setting: next, `Cc1cc(Nc2nccc(C(F)(F)F)n2)cc(-c2cnc(N[C@H]3CCC(=O)NC3)nc2)c1` [Example 2.73, (5S)-5-{[5-(3-methyl-5-{[4-(trifluoromethyl)pyrimidin-2-yl]amino}phenyl)pyrimidin-2-yl]amino}piperidin-2-one]: over 7.00.
On the same count and under the same terms, as for `Cc1cc(Nc2nccc(C(F)(F)F)n2)cc(-c2cnc(NC(C)(C)CO)nc2)c1` [Example 2.57, 2-methyl-2-{[5-(3-methyl-5-{[4-(trifluoromethyl)pyrimidin-2-yl]amino}phenyl)pyrimidin-2-yl]amino}propan-1-ol], the figure is over 7.00; as for `Cc1cc(Nc2nccc(C(F)(F)F)n2)cc(-c2cnc(CCC(=O)O)cn2)c1` [Example 3.8, 3-[5-(3-methyl-5-{[4-(trifluoromethyl)pyrimidin-2-yl]amino}phenyl)pyrazin-2-yl]propanoic acid], over 7.00.
